Patent US6914045B2, “Glycopeptide antibiotics” (Wyeth Holdings Corporation, priority 2001, dated 2005)
In brackets after ≈: the same amount, converted by molar mass.

How the values were obtained:
Experiment in all cases: in vitro antibacterial evaluation, MIC by broth dilution
Format in all cases: cell-based
Escherichia coli = settings: 18 hours at 35° C.
How it was run: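 Broth dilution per NCCLS standard M7-A2 in Muller-Hinton II […], with an inoculum of 5×10^5 CFU/mL and antibiotic spanning 64-0.06 μg/mL. The MIC is the lowest concentration that inhibits growth of the organism.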

Staphylococcus sp. = settings: broth dilution, 18 hours at 35° C.
How it was run: (§1)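 Step 1: dilute antibiotic across 64-0.06 μg/mL in Muller-Hinton II […]. Step 2: inoculate at 5×10^5 CFU/mL.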

Enterococcus sp. = settings: broth dilution, 18 hours at 35° C.
How it was run: as §1

Streptococcus sp. = settings: broth dilution, 18 hours at 35° C.
How it was run: as §1

- MIC Escherichia coli (ATCC 25922) (Escherichia coli; Escherichia coli (ATCC 25922)): >64 µg/mL
- MIC Escherichia coli (GC 4559) (Escherichia coli; Escherichia coli (GC 4559)): 64 µg/mL (≈ 46.2 µM)
- MIC Escherichia coli (GC 4560) (Escherichia coli; Escherichia coli (GC 4560)): 4 µg/mL (≈ 2.89 µM)
- MIC Coagulase Negative Staphylococcus (GC 4547) (Staphylococcus sp.): 8 µg/mL (≈ 5.77 µM)
- MIC Coagulase Negative Staphylococcus (GC 4548) (Staphylococcus sp.): 4 µg/mL (≈ 2.89 µM)
- MIC Coagulase Negative Staphylococcus (GC 4549) (Staphylococcus sp.): 4 µg/mL (≈ 2.89 µM)
- MIC Coagulase Negative Staphylococcus (GC 4551) (Staphylococcus sp.): 8 µg/mL (≈ 5.77 µM)
- MIC Staphylococcus aureus (ATCC 29213) (Staphylococcus sp.): 16 µg/mL (≈ 11.5 µM)
- MIC Staphylococcus aureus (GC 1131) (Staphylococcus sp.): 32 µg/mL (≈ 23.1 µM)
- MIC Staphylococcus aureus (GC 4541) (Staphylococcus sp.): 8 µg/mL (≈ 5.77 µM)
- MIC Staphylococcus aureus (GC 4542) (Staphylococcus sp.): 8 µg/mL (≈ 5.77 µM)
- MIC Staphylococcus aureus (GC 4544) (Staphylococcus sp.): 8 µg/mL (≈ 5.77 µM)
- MIC Staphylococcus aureus (GC 4545) (Staphylococcus sp.): 8 µg/mL (≈ 5.77 µM)
- MIC Staphylococcus aureus-SMITH (GC 4543) (Staphylococcus sp.): 8 µg/mL (≈ 5.77 µM)
- MIC Staphylococcus aureus (ATCC 29213) (Staphylococcus sp.; strain ATCC 29213): 16 µg/mL (≈ 11.5 µM)
- MIC Staphylococcus aureus (GC 1131) (Staphylococcus sp.; strain GC 1131): 32 µg/mL (≈ 23.1 µM)
- MIC Staphylococcus aureus (GC 4541) (Staphylococcus sp.; strain GC 4541): 8 µg/mL (≈ 5.77 µM)
- MIC Staphylococcus aureus (GC 4542) (Staphylococcus sp.; strain GC 4542): 8 µg/mL (≈ 5.77 µM)
- MIC Staphylococcus aureus (GC 4544) (Staphylococcus sp.; strain GC 4544): 8 µg/mL (≈ 5.77 µM)
- MIC Staphylococcus aureus (GC 4545) (Staphylococcus sp.; strain GC 4545): 8 µg/mL (≈ 5.77 µM)
- MIC Coagulase Negative Staphylococcus (GC 4547) (Staphylococcus sp.; strain GC 4547): 8 µg/mL (≈ 5.77 µM)
- MIC Coagulase Negative Staphylococcus (GC 4548) (Staphylococcus sp.; strain GC 4548): 4 µg/mL (≈ 2.89 µM)
- MIC Coagulase Negative Staphylococcus (GC 4549) (Staphylococcus sp.; strain GC 4549): 4 µg/mL (≈ 2.89 µM)
- MIC Coagulase Negative Staphylococcus (GC 4551) (Staphylococcus sp.; strain GC 4551): 8 µg/mL (≈ 5.77 µM)
- MIC Staphylococcus aureus-SMITH (GC 4543) (Staphylococcus sp.; strain SMITH GC 4543): 8 µg/mL (≈ 5.77 µM)
- MIC Enterococcus avium (GC 4558) (Enterococcus sp.; Enterococcus avium (GC 4558)): 64 µg/mL (≈ 46.2 µM)
- MIC Enterococcus faecalis (ATCC 29212) (Enterococcus sp.; Enterococcus faecalis (ATCC 29212)): 64 µg/mL (≈ 46.2 µM)
- MIC Enterococcus faecalis (GC 4553) (Enterococcus sp.; Enterococcus faecalis (GC 4553)): 64 µg/mL (≈ 46.2 µM)
- MIC Enterococcus faecalis (GC 4554) (Enterococcus sp.; Enterococcus faecalis (GC 4554)): >64 µg/mL
- MIC Enterococcus faecium (GC 2243) (Enterococcus sp.; Enterococcus faecium (GC 2243)): 64 µg/mL (≈ 46.2 µM)
- MIC Enterococcus faecium (GC 4556) (Enterococcus sp.; Enterococcus faecium (GC 4556)): 64 µg/mL (≈ 46.2 µM)
- MIC Enterococcus faecium (GC 4557) (Enterococcus sp.; Enterococcus faecium (GC 4557)): 8 µg/mL (≈ 5.77 µM)
- MIC Enterococcus faecalis (ATCC 29212) (Enterococcus sp.; strain ATCC 29212): 64 µg/mL (≈ 46.2 µM)
- MIC Enterococcus faecalis (GC 2242) (Enterococcus sp.; strain GC 2242): 64 µg/mL (≈ 46.2 µM)
- MIC Enterococcus faecium (GC 2243) (Enterococcus sp.; strain GC 2243): 64 µg/mL (≈ 46.2 µM)
- MIC Enterococcus faecalis (GC 4552) (Enterococcus sp.; strain GC 4552): 64 µg/mL (≈ 46.2 µM)
- MIC Enterococcus faecalis (GC 4553) (Enterococcus sp.; strain GC 4553): 64 µg/mL (≈ 46.2 µM)
- MIC Enterococcus faecalis (GC 4554) (Enterococcus sp.; strain GC 4554): >64 µg/mL
- MIC Enterococcus faecium (GC 4556) (Enterococcus sp.; strain GC 4556): 64 µg/mL (≈ 46.2 µM)
- MIC Enterococcus faecium (GC 4557) (Enterococcus sp.; strain GC 4557): 8 µg/mL (≈ 5.77 µM)
- MIC Enterococcus avium (GC 4558) (Enterococcus sp.; strain GC 4558): 64 µg/mL (≈ 46.2 µM)
- MIC Streptococcus agalactiae (GC 4564) (Streptococcus sp.; strain GC 4564): 8 µg/mL (≈ 5.77 µM)
- MIC Streptococcus pyogenes (ID-3187) (Streptococcus sp.; strain ID-3187): 4 µg/mL (≈ 2.89 µM)
SMILES: CC(C)CC(=O)OC1C(O)C(CO)OC(OC2C(CO)OC(Oc3ccc(CC4NC(=O)C(C(C)c5cccs5)NC(=O)CNC(=O)C(CO)NC(=O)C(C(O)C5CNC(=N)N5C5OC(CO)C(O)C(O)C5O)NC(=O)C(C(O)C5CNC(=N)N5)NC4=O)cc3)C(O)C2O)C1O (stereo not drawn) [Example 265b, Cyclo[3-(2-thienyl)-2-aminobutanoyl-O-[4-O-[3-O-(3-methylbutanoyl)hexopyranosyl]hexoipyranosyl]tyrosyl-3-(2-iminoimidazolidin-4-yl)seryl-3-(3-hexolpyranosyl-2-iminoimidazolidin-4-yl)serylserylglycyl]]
- MIC Staphylococcus haemolyticus (GC 4546) (Staphylococcus sp.): 8 µg/mL (≈ 5.77 µM)
- MIC Staphylococcus haemolyticus (GC 4546) (Staphylococcus sp.; strain GC 4546): 8 µg/mL (≈ 5.77 µM)
